Data taken from paper PMC9081086, “Stapling strategy enables improvement of antitumor activity and proteolytic stability of host-defense peptide hymenochirin-1B” (RSC Advances, 2018).
Positions of bridges follow the written chain, without caps; N, C: chain ends. Non-standard residues stand in square brackets, D forms with d. Residues, ends and D or L forms follow the SMILES beside them. R8 = C=CCCCCCC[C@@](C)(N)C(=O)O; S5 = C=CCCC[C@](C)(N)C(=O)O

What was measured:
[1] = Circular dichroism, α-helicity; format: physicochemical; settings: CD, TFE/water (1:1), 50 μM peptide, 25 °C, 1 mm cuvette, calculated from [θ]222
Procedure: The linear and stapled peptides were dissolved in the trifluoroethanol (TFE) and water (1 : 1) to a final concentration of 50 μM, respectively. The CD spectra were obtained with 1 mm quartz cuvette on Jasco-815 spectropolarimeter at 25 °C. The measurement parameters were set up as follows: wavelength, 185–260 nm; step resolution, 0.5 nm; speed, 20 nm min^−1. All spectra were converted to a uniform scale of molar ellipticity after background subtraction. The curves were smoothed using standard parameters. The ellipticity in the acquired CD spectra was converted to the molar ellipticity using the equation: [θ] = θ/(10 × c × l), where, [θ] is the Molar ellipticity (deg cm^2. d mol^−1), θ is the observed ellipticity corrected for the buffer at a given wavelength (m deg), c is the molar concentration and l is the path length (cm). The helicity of each peptide was calculated as described in a literature based on the ellipticity of the peptide's spectrum at 222 nm and the number of amino acids in the peptide sequence.
Circular dichroism (CD) spectroscopy was used to investigate the secondary structures of the stapled and template peptides to probe structural changes induced by conformation constraint in a membrane-like milieu, including […] (TFE) and water (1 : 1). […] (Table 1, ESI ^†).

[2] = tested on: human normal liver cell LO-2; assay: MTT toxicity against normal cells, LO-2; format: cell-based; settings: 96 h
Procedure: (§1) Anti-tumor activity was evaluated by the standard MTT assay with a slight modification measuring the median inhibitory concentration (IC50) values.[35] HCT-116 cells, HepG2 cells and A549 cells were plated in triplicate wells into a 96-well plate at 5 × 10^3/well and cultured routinely for 24 h. Cells were incubated with increasing concentrations of hymenochirin-1B and its analogs (0.1–30 μM) and continued to culture with DMEM plus 10% FBS at 37 °C and 5% CO2. After being incubated for 96 h, the absorbance A value was determined by MTT at 540 nm. The untreated HCT-116 cells, HepG2 cells and A549 cells were used as control. Each experiment was performed in duplicate. The inhibitory rate was calculated according to the following formula: inhibitory rate = (a value of the control group − a value of the study group)/a value of the control group × 100%.
(§2) To further research the selectivity of these peptides towards cancer cells over normal cells. The growth-inhibitory activities of peptides were evaluated using the 3-(4,5-dimethylthiazol-2-yl)-2,5-diphenyltetrazolium bromide (MTT) assay against three normal cells,[35] namely, human normal liver cell LO-2, human normal Lung cell BEAS-2 and human normal kidney cell 293 T (Table S2 ^†). The experiments procedure was performed just same as growth inhibition of the peptides against tumor cells. […] It might be due to the higher averaged hydrophobicity produced by six or nine additional methylene and two olefinic carbons to the peptide to increase toxicity to human normal cells. This situation may be resolved through the addition of polar character and glycosylation into the sequence to decrease the averaged hydrophobicity to improve the selectivity of these peptides towards cancer cells over normal cells. These modifications of these peptides are under way, and the present study was focused on the improved anti-tumor activity of template peptide hymenochirin-1B.

[3] = tested on: human normal Lung cell BEAS-2; assay: MTT toxicity against normal cells, BEAS-2B; format: cell-based; settings: 96 h
Procedure: as §1, §2

[4] = tested on: human normal kidney cell 293 T; assay: MTT toxicity against normal cells, 293T; format: cell-based; settings: 96 h
Procedure: as §1, §2

SMILES | Helicity (%) [1] [%] | IC50 (μM) LO-2, toxicity against normal cells [2] [µM] | IC50 (μM) BEAS-2B, toxicity against normal cells [3] [µM] | IC50 (μM) 293T, toxicity against normal cells [4] [µM]
CC[C@H](C)[C@H](N)C(=O)N[C@@H](CCCCN)C(=O)N[C@@H](CC(C)C)C(=O)N[C@@H](CO)C(=O)N[C@@]1(C)CCCC=CCCC[C@@](C)(C(=O)N[C@@H](CC(N)=O)C(=O)N[C@@H](CC(C)C)C(=O)N[C@@H](CCCCN)C(=O)N[C@@H](CCCCN)C(=O)N[C@H](C(=O)N[C@@H](CC(C)C)C(=O)N[C@@H](CCCCN)C(=O)NCC(=O)N[C@@H](C)C(=O)N[C@H](C(=O)N[C@@H](CCCCN)C(=O)NCC(=O)N[C@@H](C)C(=O)N[C@H](C(=O)N[C@@H](C)C(=O)N[C@H](C(=O)N[C@@H](C)C(=O)N[C@@H](CCCCN)C(=O)N[C@@H](CCSC)C(=O)N[C@H](C(N)=O)C(C)C)C(C)C)[C@@H](C)CC)[C@@H](C)CC)C(C)C)NC(=O)[C@H](CCCCN)NC(=O)[C@H]([C@@H](C)O)NC(=O)[C@H](CCC(=O)O)NC1=O [H-1] (H-IKLS[S5]ETK[S5]NLKKVLKGAIKGAIAVAKMV-NH2; staple 5-9) | 49.0 | 7.80 ± 0.21 | 9.61 ± 0.35 | 5.82 ± 0.45
CC[C@H](C)[C@H](N)C(=O)N[C@@H](CCCCN)C(=O)N[C@@H](CC(C)C)C(=O)N[C@@H](CO)C(=O)N1CCC[C@H]1C(=O)N[C@@H](CCC(=O)O)C(=O)N[C@H](C(=O)N[C@@H](CCCCN)C(=O)N[C@@H](CC(=O)O)C(=O)N[C@@H](CC(N)=O)C(=O)N[C@@H](CC(C)C)C(=O)N[C@@H](CCCCN)C(=O)N[C@@H](CCCCN)C(=O)N[C@H](C(=O)N[C@@H](CC(C)C)C(=O)N[C@@H](CCCCN)C(=O)N[C@]1(C)CCCCCCC=CCCC[C@@](C)(C(=O)N[C@H](C(=O)N[C@@H](C)C(=O)N[C@@H](CCCCN)C(=O)N[C@@H](CCSC)C(=O)N[C@H](C(N)=O)C(C)C)C(C)C)NC(=O)[C@H]([C@@H](C)CC)NC(=O)[C@H](C)NC(=O)CNC(=O)[C@H](CCCCN)NC(=O)[C@H]([C@@H](C)CC)NC(=O)[C@H](C)NC1=O)C(C)C)[C@@H](C)O [H-4] (H-IKLSPETKDNLKKVLK[R8]AIKGAI[S5]VAKMV-NH2; staple 17-24) | 66.3 |  |  | 
CC[C@H](C)[C@H](N)C(=O)N[C@@H](CCCCN)C(=O)N[C@@H](CC(C)C)C(=O)N[C@@H](CO)C(=O)N1CCC[C@H]1C(=O)N[C@@H](CCC(=O)O)C(=O)N[C@H](C(=O)N[C@@H](CCCCN)C(=O)N[C@@H](CC(=O)O)C(=O)N[C@@H](CC(N)=O)C(=O)N[C@@H](CC(C)C)C(=O)N[C@@H](CCCCN)C(=O)N[C@@H](CCCCN)C(=O)N[C@H](C(=O)N[C@@H](CC(C)C)C(=O)N[C@@H](CCCCN)C(=O)N[C@@]1(C)CCCC=CCCC[C@@](C)(C(=O)N[C@@H](C)C(=O)N[C@H](C(=O)N[C@@H](C)C(=O)N[C@H](C(=O)N[C@@H](C)C(=O)N[C@@H](CCCCN)C(=O)N[C@@H](CCSC)C(=O)N[C@H](C(N)=O)C(C)C)C(C)C)[C@@H](C)CC)NC(=O)[C@H](CCCCN)NC(=O)[C@H]([C@@H](C)CC)NC(=O)[C@H](C)NC1=O)C(C)C)[C@@H](C)O [H-9] (H-IKLSPETKDNLKKVLK[S5]AIK[S5]AIAVAKMV-NH2; staple 17-21) |  | 8.56 ± 0.32 | 7.72 ± 0.36 | 8.66 ± 0.23
CC[C@H](C)[C@H](N)C(=O)N[C@@H](CCCCN)C(=O)N[C@@H](CC(C)C)C(=O)N[C@@H](CO)C(=O)N1CCC[C@H]1C(=O)N[C@@H](CCC(=O)O)C(=O)N[C@H](C(=O)N[C@@H](CCCCN)C(=O)N[C@@H](CC(=O)O)C(=O)N[C@@H](CC(N)=O)C(=O)N[C@@H](CC(C)C)C(=O)N[C@@H](CCCCN)C(=O)N[C@@H](CCCCN)C(=O)N[C@H](C(=O)N[C@@H](CC(C)C)C(=O)N[C@@H](CCCCN)C(=O)NCC(=O)N[C@@H](C)C(=O)N[C@H](C(=O)N[C@@H](CCCCN)C(=O)NCC(=O)N[C@@]1(C)CCCC=CCCC[C@@](C)(C(=O)N[C@@H](CCCCN)C(=O)N[C@@H](CCSC)C(=O)N[C@H](C(N)=O)C(C)C)NC(=O)[C@H](C(C)C)NC(=O)[C@H](C)NC(=O)[C@H]([C@@H](C)CC)NC1=O)[C@@H](C)CC)C(C)C)[C@@H](C)O [H-7] (H-IKLSPETKDNLKKVLKGAIKG[S5]IAV[S5]KMV-NH2; staple 22-26) | 65.9 | 6.52 ± 0.32 | 7.50 ± 0.32 | 7.25 ± 0.26
CC[C@H](C)[C@H](N)C(=O)N[C@@H](CCCCN)C(=O)N[C@@H](CC(C)C)C(=O)N[C@@H](CO)C(=O)N1CCC[C@H]1C(=O)N[C@@H](CCC(=O)O)C(=O)N[C@H](C(=O)N[C@@H](CCCCN)C(=O)N[C@@H](CC(=O)O)C(=O)N[C@@H](CC(N)=O)C(=O)N[C@@H](CC(C)C)C(=O)N[C@@H](CCCCN)C(=O)N[C@@H](CCCCN)C(=O)N[C@H](C(=O)N[C@@H](CC(C)C)C(=O)N[C@@H](CCCCN)C(=O)NCC(=O)N[C@@H](C)C(=O)N[C@H](C(=O)N[C@]1(C)CCCCCCC=CCCC[C@@](C)(C(=O)N[C@@H](CCSC)C(=O)N[C@H](C(N)=O)C(C)C)NC(=O)[C@H](C)NC(=O)[C@H](C(C)C)NC(=O)[C@H](C)NC(=O)[C@H]([C@@H](C)CC)NC(=O)[C@H](C)NC(=O)CNC1=O)[C@@H](C)CC)C(C)C)[C@@H](C)O [H-6] (H-IKLSPETKDNLKKVLKGAI[R8]GAIAVA[S5]MV-NH2; staple 20-27) | 64.9 | 49.77 ± 0.22 | 46.58 ± 0.42 | 60.11 ± 0.35
CC[C@H](C)[C@H](N)C(=O)N[C@@H](CCCCN)C(=O)N[C@@H](CC(C)C)C(=O)N[C@@H](CO)C(=O)N1CCC[C@H]1C(=O)N[C@@H](CCC(=O)O)C(=O)N[C@H](C(=O)N[C@@H](CCCCN)C(=O)N[C@@H](CC(=O)O)C(=O)N[C@@H](CC(N)=O)C(=O)N[C@@H](CC(C)C)C(=O)N[C@@H](CCCCN)C(=O)N[C@@H](CCCCN)C(=O)N[C@H](C(=O)N[C@@H](CC(C)C)C(=O)N[C@@H](CCCCN)C(=O)NCC(=O)N[C@@H](C)C(=O)N[C@H](C(=O)N[C@@]1(C)CCCC=CCCC[C@@](C)(C(=O)N[C@H](C(=O)N[C@@H](C)C(=O)N[C@@H](CCCCN)C(=O)N[C@@H](CCSC)C(=O)N[C@H](C(N)=O)C(C)C)C(C)C)NC(=O)[C@H]([C@@H](C)CC)NC(=O)[C@H](C)NC(=O)CNC1=O)[C@@H](C)CC)C(C)C)[C@@H](C)O [H-8] (H-IKLSPETKDNLKKVLKGAI[S5]GAI[S5]VAKMV-NH2; staple 20-24) | 60.5 | 24.82 ± 0.44 | 12.82 ± 0.25 | 15.58 ± 0.36
CC[C@H](C)[C@H](N)C(=O)N[C@@H](CCCCN)C(=O)N[C@@H](CC(C)C)C(=O)N[C@@H](CO)C(=O)N1CCC[C@H]1C(=O)N[C@@H](CCC(=O)O)C(=O)N[C@H](C(=O)N[C@@H](CCCCN)C(=O)N[C@@H](CC(=O)O)C(=O)N[C@]1(C)CCCCCCC=CCCC[C@@](C)(C(=O)N[C@@H](C)C(=O)N[C@H](C(=O)N[C@@H](CCCCN)C(=O)NCC(=O)N[C@@H](C)C(=O)N[C@H](C(=O)N[C@@H](C)C(=O)N[C@H](C(=O)N[C@@H](C)C(=O)N[C@@H](CCCCN)C(=O)N[C@@H](CCSC)C(=O)N[C@H](C(N)=O)C(C)C)C(C)C)[C@@H](C)CC)[C@@H](C)CC)NC(=O)[C@H](CCCCN)NC(=O)[C@H](CC(C)C)NC(=O)[C@H](C(C)C)NC(=O)[C@H](CCCCN)NC(=O)[C@H](CCCCN)NC(=O)[C@H](CC(C)C)NC1=O)[C@@H](C)O [H-3] (H-IKLSPETKD[R8]LKKVLK[S5]AIKGAIAVAKMV-NH2; staple 10-17) | 65.7 | 7.61 ± 0.43 | 7.95 ± 0.36 | 4.58 ± 0.34
